{"source": "patent US9034820B2", "about": "“Method and composition for modulating erythropoiesis” (priority 2011, dated 2015)", "key": {"[1]": {"system": "human CD133+ hematopoietic stem cells (hHSCs)", "assay": "expansion and differentiation of hHSC-derived erythroid cells in culture", "assay_type": "cell-based", "settings": "LPA present, EPO-free, data not shown", "procedure": "(§1) CD133^+ stem cells were isolated from human umbilical cord blood by magnetic microbead selection using Direct […] progenitor isolation beads (Miltenyi Biotech, Bergisch Gladbach, Germany) and MACS LS-columns (Miltenyi Biotech), and were subsequently cultured. In stage I, 10^5 CD133^+ cells were cultured in 10 ml of EDM (10^4 cells/ml), containing human stem cell factor (SCF, 50 ng/ml), human EPO (6 IU/ml), human interleukin (IL)-3 (10 ng/ml), human vascular endothelial growth factor (VEGF, 10 ng/ml), and human insulin-like growth factor (IGF)-II (250 ng/ml) for 6 days. In stage II, cells were cultured in 10 ml of EDM (3×10^4 cells/ml) in the presence of SCF (50 ng/ml) and EPO (6 IU/ml) for 4 days. In stage III, cells were cultured in 10 ml of EDM (5×10^4 cells/ml) in the presence of SCF (50 ng/ml) and EPO (2 IU/ml) for 6 days. Cultured cells respectively underwent 30-, 20-, and 10-fold expansions in stages I, II, and III. All cell cultures were incubated at 37° C. in 5% CO2 under humidified conditions. LPA (Sigma) was prepared in chloroform and methanol (1:9) and stored at −20° C. LPA was added to serum-free medium with 0.005% fatty acid-free BSA as a carrier.\nKi16425 (Cayman Chemical, Ann Arbor, Mich., USA) powder was diluted in dimethyl sulfoxide (DMSO) at a concentration of 40 mM as the stock. […]"}, "[2]": {"system": "human CD133+ hematopoietic stem cells (hHSCs)", "assay": "flow cytometry of CD71 and GlyA protein on cultured hHSCs", "assay_type": "cell-based", "settings": "end of stage II induction", "procedure": "as §1\n(§2) Ki16425 (Cayman Chemical, Ann Arbor, Mich., USA) powder was diluted in dimethyl sulfoxide (DMSO) at a concentration of 40 mM as the stock. At the ends of stages I and II, HSCs were pretreated with Ki16425 in serum-free medium for 1 h. Then, cells were cultured in media of stages II and III containing Ki16425 at a final concentration of 20 μM. Quercetin (Sigma) was dissolved in DMSO at 100 mM as the stock and stored at −20° C. Quercetin was diluted into each final concentration by culture media for treatment.\nHSC cultures were collected, washed, and stained either with anti-GlyA-PE and anti-CD71-PE/Cy5 for 30 minutes (BD Biosciences Pharmingen, San Diego, Calif., USA). Stained cells were washed and resuspended in PBS. Non-stained and single-stained samples were prepared for fluorescent compensation. […]"}, "[3]": {"system": "human CD133+ hematopoietic stem cells (hHSCs)", "assay": "real-time PCR of erythroid marker mRNA in cultured hHSCs during erythropoietic differentiation", "assay_type": "cell-based", "procedure": "as §1, §2\nTotal RNA extraction was isolated using Trizol Reagent (Invitrogen, Carlsbad, Calif., USA). Complementary (c)DNA was synthesized from 1 μg total RNA with a reverse-transcription polymerase chain reaction (RT-PCR). Primer sequences were:\nA real-time PCR with the mixture reagent SYBR®-Green I (Thermo Scientific, San Diego, Calif., USA) was carried out on an iCycler iQ™ real-time detection system (Bio-Rad, Hercules, Calif., USA). The specificity of the primers was confirmed from a single peak of the melting curve. Each target mRNA level was evaluated from the real-time threshold cycle and compared to the GAPDH amount as an internal control."}, "[4]": {"system": "zLPA3", "assay": "o-dianisidine blood cell staining of zLPA3 morpholino-injected zebrafish embryos", "assay_type": "in vivo, zebrafish (Danio rerio)", "settings": "for percentages of erythrocyte-defective embryos compared to control embryos: 48 hpf and 60 hpf; for effect of LPA3 knockdown on erythrocyte formation (o-dianisidine staining; normal, moderate, severe): injected at one-cell stage, 0, 2.5 and 5 ng, 48 hpf", "procedure": "Wild-type zebrafish (Danio rerio) obtained from the Zebrafish Information Research Center (Eugene, Oreg., USA) were inbred at 27-28° C. Embryos were collected from natural spawning, washed, and incubated in 0.3× Danieau's buffer at 28° C. until being used. Each stage of fish embryos was determined from their morphology. Embryos at 12 hour post-fertilization (hpf) were treated with 0.2 mM 1-phenyl-2-thiourea (PTU) (Sigma, St. Louis, Mo., USA) in 0.3× Danieau's buffer to suppress melanization. Dechorionation of embryos was carried out with 0.01 g/ml protease (Sigma).\nGlass capillary tubes were pulled by a horizontal puller (P-97, Sutter Instrument, Navato, Calif., USA). Two zLPA3 translation-blocking (t)MOs (Gene Tools, Philomath, Oreg., USA) were utilized as follows:\ntMO1: 5′-[…]-3′ (−27 to −3) (SEQ ID No. 1); and\ntMO2: 5′-[…]-3′ (+1 to +23) (SEQ ID No. 2).\nThe MOs were prepared at 1 mM in sterile H2O as a stock solution, and further diluted into desired working concentrations in 1× Danieau's buffer with 0.5% phenol red. Fish embryos were fixed on 1% injection agar plates, and 2.3 nl of solution was injected into the yolk sac and blastodisc interface with a nanoliter injector (World Precision Instruments, Sarasota, Fla., USA). The injected embryos were incubated in 0.3× Danieau's buffer at 28.5° C. for further experiments.\nEmbryos from designated stages were incubated in freshly prepared o-dianisidine solution (40% ethanol, 0.01 M sodium acetate, 0.65% H2O2, and 0.6 mg/ml o-dianisidine [Sigma]) for 15 minutes in the dark."}, "[5]": {"settings": "stage II, 24-hour LPA 18:1 (1~10 μM), plasma-free medium, concentration-dependent"}}, "note": "“Also recorded” adds a separate entry of the source."}
{"molecule": "CCCCCCCC/C=C\\CCCCCCCC(=O)OCC(O)COP(=O)(O)O", "note": "(stereo not drawn) [LPA, (2-hydroxy-3-phosphonooxypropyl) (Z)-octadec-9-enoate]", "values": [{"measurement": "differentiation of erythroid cells in the absence of EPO", "setting": "[1]", "result": "severely decreased"}, {"measurement": "protein expression level of CD71", "setting": "[2]; 5 and 10 μM LPA, 4 days", "result": "higher levels"}, {"measurement": "protein expression level of GlyA", "setting": "[2]; 5 and 10 μM LPA, 4 days", "result": "not GlyA"}, {"measurement": "mRNA level of CD71", "setting": "[3]; [5]", "result": "increased; also recorded: elevated"}, {"measurement": "mRNA level of GATA-1", "setting": "[3]; [5]", "result": "elevated"}, {"measurement": "mRNA level of GlyA", "setting": "[3]; [5]", "result": "elevated"}]}
{"molecule": "tMO2: zLPA3 translation-blocking morpholino 5′-ATGGCCAGGCACAACATCTGCTA-3′ (SEQ ID No. 2) (all phosphorodiamidate morpholino (PMO))", "values": [{"measurement": "percentages of erythrocyte-defective embryos compared to control embryos", "setting": "[4]", "result": "significantly higher"}, {"measurement": "effect of LPA3 knockdown on erythrocyte formation (o-dianisidine staining; normal, moderate, severe)", "setting": "[4]", "result": "dose-dependent effect"}]}
{"molecule": "tMO1: zLPA3 translation-blocking morpholino 5′-CACTGTCCTAGTGGGTTTTGTCCAA-3′ (SEQ ID No. 1) (all phosphorodiamidate morpholino (PMO))", "values": [{"measurement": "percentages of erythrocyte-defective embryos compared to control embryos", "setting": "[4]", "result": "significantly higher"}, {"measurement": "effect of LPA3 knockdown on erythrocyte formation (o-dianisidine staining; normal, moderate, severe)", "setting": "[4]", "result": "dose-dependent effect"}]}
{"molecule": "O=c1c(O)c(-c2ccc(O)c(O)c2)oc2cc(O)cc(O)c12", "note": "[quercetin]", "values": [{"measurement": "LPA-induced protein expression of CD71", "setting": "[2]; quercetin (20 μM)", "result": "decreased; also recorded: suppressed"}, {"measurement": "increase in CD71 mRNA under LPA induction", "setting": "[3]; quercetin 5, 20 and 50 μM", "result": "suppressed; also recorded: inhibited"}]}
